The values below come from PubChem BioAssay (NCI).

Test systems include A549 NSCLC; HCT-116 colon; K-562 leukemia; NCI-H226 lung; OVCAR-5 ovarian; RPMI-8226 leukemia; SF-539 CNS; UACC-257 melanoma; A498 renal.
Common to all, as to assay: NCI-60 cell line screen, 48 h

“And” between values parts separate entries of the source, which are not always exact repeats. Equal entries are not always repeated.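 How tested: cells in 96-well plates exposed to compound for 48 hours at five concentrations. GI50 = concentration required for 50% inhibition of growth. TGI is the concentration that stops growth completely.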

For `O=[N+]([O-])c1ccc2c(N=Nc3c(O)ccc4ccccc34)c(O)cc(S(=O)(=O)O)c2c1`, the GI50 with A549 NSCLC was 59.7 µM; with HCT-116 colon it was 25.6 µM; in the experiment with K-562 leukemia it was 25 µM; with OVCAR-5 ovarian it was 70.3 µM; in the experiment on RPMI-8226 leukemia, 67.1 µM; with UACC-257 melanoma, 32 µM. Moreover, the TGI in the experiment on A549 NSCLC was 50 µM and > 100 µM; with HCT-116 colon it was 50 µM and > 100 µM; in the experiment with K-562 leukemia, 50 µM and > 100 µM; with NCI-H226 lung it was 50 µM; in the experiment with OVCAR-5 ovarian it was 50 µM and > 100 µM; in the experiment on RPMI-8226 leukemia, 50 µM and > 100 µM. Besides, the TGI in the experiment with SF-539 CNS is 50.8 µM; with UACC-257 melanoma, 50 µM and > 100 µM.

As for `CCC1(CN(C)C)CC/C(=C\c2ccc3c(c2)OCO3)C1=O` (centres undefined), the TGI in the experiment with A498 renal, in the experiment with A549 NSCLC, in the experiment on HCT-116 colon, with K-562 leukemia, in the experiment on NCI-H226 lung and with OVCAR-5 ovarian was more than 100 µM in each case. Moreover, the TGI in the experiment with RPMI-8226 leukemia, in the experiment on SF-539 CNS and in the experiment on UACC-257 melanoma was more than 100 µM throughout.

With `O=C1C2=C(c3ccccc31)C(c1ccccc1Cl)N1C(=O)CSC1=N2` (centres undefined), the TGI with A498 renal, in the experiment on A549 NSCLC, in the experiment with HCT-116 colon, with K-562 leukemia, in the experiment on NCI-H226 lung and in the experiment with OVCAR-5 ovarian was more than 100 µM each time. In addition, the TGI in the experiment on RPMI-8226 leukemia, in the experiment on SF-539 CNS and in the experiment with UACC-257 melanoma was more than 100 µM in each case.

For `COc1cc(Br)c(CC2=NCCc3cc(OC)c(OC)cc32)cc1OC`, the TGI was 76.3 µM in the experiment on A498 renal; more than 100 µM in the experiment on A549 NSCLC; more than 100 µM with HCT-116 colon; more than 100 µM in the experiment on K-562 leukemia; more than 100 µM in the experiment with NCI-H226 lung; more than 100 µM in the experiment on OVCAR-5 ovarian. Besides, the figures for the TGI in the experiment with RPMI-8226 leukemia, in the experiment with SF-539 CNS and with UACC-257 melanoma were 73 µM, 87 µM and 70.6 µM, respectively.

`COc1cc2c(cc1C)n(O)c(C)c(C(=O)C/C(=N/NC(=O)C[N+](C)(C)C)C(=O)Nc1cccc(Cl)c1C)[n+]2=O`: the TGI with A498 renal, in the experiment on A549 NSCLC, in the experiment on HCT-116 colon, in the experiment on K-562 leukemia, in the experiment on NCI-H226 lung and in the experiment with OVCAR-5 ovarian was more than 100 µM in each case. The TGI with RPMI-8226 leukemia, with SF-539 CNS and with UACC-257 melanoma was more than 100 µM in each case.

`COc1ccccc1/C=C\c1cc(OC)c(OC)c(OC)c1`: the TGI with A498 renal was 54.7 µM; in the experiment on A549 NSCLC it was more than 100 µM; in the experiment with HCT-116 colon it was more than 100 µM; in the experiment with K-562 leukemia, more than 100 µM; with NCI-H226 lung, 96.2 µM; with OVCAR-5 ovarian, 89.4 µM. For the same compound, the TGI in the experiment on RPMI-8226 leukemia is 43.7 µM; in the experiment on SF-539 CNS, 46.4 µM; in the experiment with UACC-257 melanoma, more than 100 µM.

`Cc1ccc(Nc2ccc(Nc3ccc(C)cc3)c3c2C(=O)c2c(O)ccc(O)c2C3=O)cc1`: the TGI in the experiment with A498 renal, with A549 NSCLC, in the experiment on HCT-116 colon, with K-562 leukemia, in the experiment on OVCAR-5 ovarian and with RPMI-8226 leukemia was more than 100 µM throughout. In addition, the TGI in the experiment on SF-539 CNS and in the experiment on UACC-257 melanoma was more than 100 µM each time.

`CCOC(=O)C12CC1(C(=O)OCC)C1CCC2C1` (centres undefined): the TGI in the experiment on A498 renal, in the experiment with A549 NSCLC, in the experiment with HCT-116 colon, in the experiment on K-562 leukemia, with NCI-H226 lung and in the experiment on OVCAR-5 ovarian was more than 100 µM in each case. Further, the TGI in the experiment with RPMI-8226 leukemia and in the experiment with UACC-257 melanoma was more than 100 µM in each case.

For the compound `COc1ccc(C(=O)C=C2NCCN2)cc1`, the TGI in the experiment on A498 renal, in the experiment on A549 NSCLC, in the experiment with HCT-116 colon, in the experiment with K-562 leukemia, in the experiment with NCI-H226 lung and in the experiment on OVCAR-5 ovarian was more than 100 µM each time. Further, the TGI in the experiment with RPMI-8226 leukemia, in the experiment on SF-539 CNS and in the experiment on UACC-257 melanoma was more than 100 µM in each case.

`Cc1ccc(NC(=O)C(=O)Cc2nc3ccccc3o2)c(C)c1`: the TGI in the experiment on A549 NSCLC, in the experiment with HCT-116 colon, with K-562 leukemia, in the experiment with NCI-H226 lung, in the experiment on OVCAR-5 ovarian and in the experiment with RPMI-8226 leukemia was more than 100 µM throughout. Further, the TGI in the experiment on SF-539 CNS and with UACC-257 melanoma was more than 100 µM throughout.

For `Cc1ccc(N2C(=O)/C(=C3\Sc4c(nc(C)[nH]c4=O)N3c3ccccc3)SC2=S)cc1`, the TGI is 88.2 µM with A498 renal; more than 100 µM with A549 NSCLC; more than 100 µM in the experiment with HCT-116 colon; 95.8 µM in the experiment on K-562 leukemia; 86.6 µM in the experiment on NCI-H226 lung; more than 100 µM in the experiment with OVCAR-5 ovarian. Further, the TGI with RPMI-8226 leukemia was more than 100 µM; in the experiment on SF-539 CNS it was 29.5 µM; in the experiment on UACC-257 melanoma, more than 100 µM.

In the case of `CCOC(=O)C(C)(C)Oc1ccc2c(-c3ccc(Cl)cc3)cc(=O)oc2c1`, the TGI in the experiment on A498 renal, in the experiment with A549 NSCLC, with HCT-116 colon, with K-562 leukemia, in the experiment on NCI-H226 lung and in the experiment on RPMI-8226 leukemia was more than 100 µM in each case. The TGI in the experiment with SF-539 CNS and with UACC-257 melanoma was more than 100 µM in each case.

For `CC[C@@H]1OC2(C)CC(S(=O)(=O)c3ccccc3)CC1O2` (some centres undefined), the TGI in the experiment with A549 NSCLC, with HCT-116 colon, in the experiment on K-562 leukemia, in the experiment with NCI-H226 lung, in the experiment with OVCAR-5 ovarian and with RPMI-8226 leukemia was more than 100 µM throughout. Also, the TGI in the experiment on SF-539 CNS and in the experiment with UACC-257 melanoma was more than 100 µM each time.

For the compound `O=C1C(c2ccccc2)=C(c2ccccc2)C(c2ccc(CCCCCCc3ccc(C4=C(c5ccccc5)C(=O)C(c5ccccc5)=C4c4ccccc4)cc3)cc2)=C1c1ccccc1`, the TGI in the experiment on A549 NSCLC, with HCT-116 colon, in the experiment on K-562 leukemia, in the experiment with OVCAR-5 ovarian, in the experiment on RPMI-8226 leukemia and in the experiment on SF-539 CNS was more than 100 µM in each case. The compound further displayed a TGI in the experiment with UACC-257 melanoma of more than 100 µM.
